# Patent publication US7439372B2, “Therapeutic compounds” (Allergan, Inc., priority 2006, dated 2008)
# Experiments:
# hEP1 = target: T1, hEP1 (Homo sapiens, UniProt P34995); assay: FLIPR calcium signal, HEK-293(EBNA) cells expressing hEP1; format: cell-based
# T1 construct: expressed in transfected cells; host or cells: HEK-293(EBNA)
# T1 sequence (P34995 1-402): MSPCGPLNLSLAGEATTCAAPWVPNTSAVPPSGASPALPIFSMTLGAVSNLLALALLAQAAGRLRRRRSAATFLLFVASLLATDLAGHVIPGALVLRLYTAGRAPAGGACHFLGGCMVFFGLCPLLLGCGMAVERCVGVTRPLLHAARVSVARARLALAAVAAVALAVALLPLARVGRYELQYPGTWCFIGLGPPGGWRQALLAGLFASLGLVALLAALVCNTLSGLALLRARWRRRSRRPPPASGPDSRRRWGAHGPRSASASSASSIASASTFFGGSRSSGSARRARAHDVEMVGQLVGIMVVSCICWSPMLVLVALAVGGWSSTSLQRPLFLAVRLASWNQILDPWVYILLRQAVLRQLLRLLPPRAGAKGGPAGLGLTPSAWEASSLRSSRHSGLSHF
# Experimental: HEK-293(EBNA) cells, stably expressing one type or subtype of recombinant human prostaglandin receptors (prostaglandin receptors expressed: hDP/Gqs5; hEP1; hEP2/Gqs5; hEP3A/Gqi5; hEP4/Gqs5; hFP; hIP; hTP), were cultured in 100 mm culture dishes in high-glucose DMEM medium containing 10% fetal bovine serum, 2 mM l-glutamine, 250 µg/ml geneticin (G418) and 200 μg/ml hygromycin B as selection markers, and 100 units/ml penicillin G, 100 µg/ml streptomycin and 0.25 μg/ml amphotericin B.
# Cells were seeded at a density of 5×10^4 cells per well in Biocoat® Poly-D-lysine-coated black-wall, clear-bottom 96-well plates (Becton-Dickinson) and allowed to attach overnight in an incubator at 37° C. Cells were then washed two times with HBSS-HEPES buffer (Hanks Balanced Salt Solution without bicarbonate and phenol red, 20 mM HEPES, pH 7.4) using a Denley Cellwash plate washer (Labsystems). After 45 minutes of dye-loading in the dark, using the calcium-sensitive dye Fluo-4 […] at a final concentration of 2 μM, plates were washed four times with HBSS-HEPES buffer to remove excess dye leaving 100 μl in each well. Plates were re-equilibrated to 37° C. for a few minutes.
# Cells were excited with an Argon laser at 488 nm, and emission was measured through a 510-570 nm bandwidth emission filter (FLIPR™, Molecular Devices, Sunnyvale, Calif.). Drug solution was added in a 50 µl volume to each well to give the desired final concentration. The peak increase in fluorescence intensity was recorded for each well. On each plate, four wells each served as negative (HBSS-HEPES buffer) and positive controls (standard agonists: BW245C (hDP); PGE2 (hEP1; hEP2/Gqs5; hEP3A/Gqi5; hEP4/Gqs5); PGF2α (hFP); carbacyclin (hIP); U-46619 (hTP), depending on receptor). The peak fluorescence change in each drug-containing well was then expressed relative to the controls.
# Compounds were tested in a high-throughput (HTS) or concentration-response (CoRe) format. In the HTS format, forty-four compounds per plate were examined in duplicates at a concentration of 10^−5 M. To generate concentration-response curves, four compounds per plate were tested in duplicates in a concentration range between 10^−5 and 10^−11 M. The duplicate values were averaged. In either, HTS or CoRe format each compound was tested on at least 3 separate plates using cells from different passages to give an n≧3.
# EP2 = EP2 (Homo sapiens, UniProt P43116); assay: Competition binding, [3H]PGE2, HEK 293 cells stably expressing human EP2 receptors; set-up: expressed in transfected cells; host or cells: HEK 293; settings: [3H]PGE2 competition
# Experimental: Competition binding experiments were performed in a medium containing Hank's balanced salt solution, Hepes 20 mM, pH 7.3, membranes (˜60 μg protein) or 2×10^5 cells from HEK 293 cells stably expressing human EP2 receptors, [^3H]PGE2 (10 nM) and various concentrations of test compounds in a total volume of 300 μl. Reaction mixtures were incubated at 23° C. for 60 min, and were filtered over Whatman GF/B filters under vacuum. Filters were washed three times with 5 ml ice-cold buffer containing 50 mM Tris/HCl (pH 7.3). Non-specific binding was estimated in the presence of excess unlabeled PGE2 (10 μM). Binding data fitted to the binding model for a single class of binding sites, using nonlinear regression analysis. IC50 values thus obtained were converted to Ki using the equation of Ki=(IC50/(1+[L]/KD) where [L] represents PGE2 concentration (10 nM) and KD the dissociation constant for [3H]PGE2 at human EP2 receptors (40 nM).
# HEK-293 cells stably expressing the human or feline FP receptor, or EP1, EP2, or EP4 receptors were washed with TME buffer, scraped from the bottom of the flasks, and homogenized for 30 sec using a Brinkman PT 10/35 polytron. TME buffer was added to achieve a final 40 ml volume in the centrifuge tubes (the composition of TME is 100 mM TRIS base, 20 mM MgCl2, […]; 10N HCl is added to achieve a pH of 7.4).
# The cell homogenate was centrifuged at 19000 r.p.m. for 20 min at 4° C. using a Beckman Ti-60 rotor. The resultant pellet was resuspended in TME buffer to give a final 1 mg/ml protein concentration, as determined by Biorad assay. Radioligand binding competition assays vs. [^3H-]17-phenyl PGF2α (5 nM) were performed in a 100 μl volume for 60 min. Binding reactions were started by adding plasma membrane fraction. The reaction was terminated by the addition of 4 ml ice-cold TRIS-HCl buffer and rapid filtration through glass fiber GF/B filters using a Brandel cell harvester. The filters were washed 3 times with ice-cold buffer and oven dried for one hour.
# [^3H-]PGE2 (specific activity 180 Ci mmol) was used as the radioligand for EP receptors. [^3H]17-phenyl PGF2α was employed for FP receptor binding studies. Binding studies employing EP1, EP2, EP4 and FP receptors were performed in duplicate in at least three separate experiments. A 200 μl assay volume was used. Incubations were for 60 min at 25° C. and were terminated by the addition of 4 ml of ice-cold 50 mM TRIS-HCl, followed by rapid filtration through Whatman GF/B filters and three additional 4 ml washes in a cell harvester (Brandel). Competition studies were performed using a final concentration of 5 nM [^3H]-PGE2, or 5 nM [^3H] 17-phenyl PGF2α and non-specific binding determined with 10^−5M of unlabeled PGE2, or 17-phenyl PGF2α, according to receptor subtype studied.
# EP2, sequence (P43116 whole entry): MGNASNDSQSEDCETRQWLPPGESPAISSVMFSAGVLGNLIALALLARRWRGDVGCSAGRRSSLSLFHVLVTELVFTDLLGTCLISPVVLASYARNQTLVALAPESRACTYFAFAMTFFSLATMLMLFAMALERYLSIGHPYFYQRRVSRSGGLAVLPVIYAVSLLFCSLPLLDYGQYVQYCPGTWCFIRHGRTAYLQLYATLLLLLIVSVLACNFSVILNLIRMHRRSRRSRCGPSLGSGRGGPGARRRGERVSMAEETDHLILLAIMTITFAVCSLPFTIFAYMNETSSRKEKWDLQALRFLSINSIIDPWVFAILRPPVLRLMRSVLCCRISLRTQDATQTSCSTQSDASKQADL
Ca2+ Signal-EC50(nM) EP1 (hEP1),Ki (EP2) [nM],SMILES
notactive,43,CCCCCC(O)c1ccc([C@H]2C(=O)CC[C@@H]2CCCc2ccc(C(=O)O)s2)cc1 (some centres unmarked) [compound 1]
notactive,70,CCCCCC(O)c1ccc([C@H]2C(=O)CC[C@@H]2CCCc2ccc(C(=O)O)s2)cc1 (some centres unmarked) [compound 2]
notactive,89,CCCCCC(O)c1ccc([C@@H]2[C@@H](CCCc3ccc(C(=O)O)s3)CCC2(Cl)Cl)cc1 (some centres unmarked) [compound 3]
notactive,1050,CCCCCC(O)c1ccc([C@H]2C(=O)CC[C@@H]2C/C=C\CCCC(=O)O)cc1 (some centres unmarked) [compound 5]
notactive,401,CCCCCC(O)c1ccc([C@@H]2[C@@H](C/C=C\CCCC(=O)O)CC[C@H]2Cl)cc1 (some centres unmarked) [compound 6]
notactive,2310,CCCCCC(O)c1ccc([C@@H]2[C@@H](C/C=C\CCCC(=O)O)CC[C@H]2O)cc1 (some centres unmarked) [compound 7]
notactive,173,CCCCCC(O)c1ccc([C@H]2C(=O)C=C[C@@H]2CCCc2ccc(C(=O)O)s2)cc1 (some centres unmarked) [compound 11]
